What was measured:
[1] = biological target: T1, γ-secretase (Homo sapiens, UniProt P49768); assay: Analysis of EphA4 processing in EphA4-HA-transfected 293/EBNA-1 cell strain (Western blotting, anti-HA antibody); assay type: cell-based; conditions: 50 nM Compound E, one day; cells expressing rat EphA4 with C-terminal HA tag; vs sample untreated with Compound E; FIG. 1
T1 construct: host or cells: 293/EBNA-1 (HEK293) cells; only the substrate EphA4-HA was transfected
Protocol: Whether or not EphA4 is a substrate for γ-secretase was evaluated using HEK293 cells expressing EphA4 with an HA tag added to its C-terminus, in the presence of a γ-secretase inhibitor. As the γ-secretase inhibitor, (2S)-2-{[(3,5-difluorophenyl)acetyl]amino}-N-[(3S)-1-methyl-2-oxo-5-phenyl-2,3-dihydro-1H-1,4-benzodiazepin-3-yl]propanamide (hereinafter, sometimes referred to as “Compound E”) (Alexis Biochemicals) was used.
293/EBNA-1 cell strain (Invitrogen) was cultured in 10% FEB (Hyclone)/DMEM (Invitrogen) under 5% CO2 at 37° C., followed by transfection thereinto of a gene encoding rat EphA4 with an HA tag added to its C-terminus with Lipofectamine 2000 (Invitrogen). After one day culture under the same conditions, 50 nM Compound E (Alexis Biochemicals) was added to the medium. Cells were cultured for another day under the same conditions. Then, the transfected HEK293 cells were collected with PBS (Sigma) and sonicated with a sonicator (Taitec VP-5S) to disrupt cells. Then, the quantity of protein was determined with Protein Assay Kit (BioRad). […]
First, the substrate for γ-secretase is cut off its extracellular domain by other protease. […] Since reactions proceed very quickly from the first cleavage to the final degradation by proteasome, the substrate is […] when detected by Western blotting.

[2] = biological target: T2, γ-secretase (Rattus norvegicus, UniProt P97887); assay: Analysis of EphA4 processing in primary culture of rat hippocampal neurons (Western blotting, anti-EphA4 antibody); assay type: cell-based; conditions: Compound E final concentration 50 nM, one week; endogenous EphA4; vs sample untreated with Compound E; FIG. 2
T2 construct: endogenous in cells; host or cells: primary culture of hippocampal neurons from embryonic day 18 SD rats (Charles River)
Protocol: Whether or not EphA4 is a substrate for γ-secretase was evaluated using a primary culture of rat hippocampal neurons in the presence of a γ-secretase inhibitor. As the γ-secretase inhibitor, (2S)-2-{[(3,5-difluorophenyl)acetyl]amino}-N-[(3S)-1-methyl-2-oxo-5-phenyl-2,3-dihydro-1H-1,4-benzodiazepin-3-yl]propanamide (Compound E) (Alexis Biochemicals) was used.
The hippocampus was isolated from embryonic day 18 SD rats (Charles River) and subjected to culture. Specifically, embryos were removed aseptically from pregnant rats under etherization. The brain was removed from each embryo and dipped in 20% FBS (Hyclone)/HBSS (Sigma). The hippocampus was collected from the thus obtained brain under a stereomicroscope. The collected hippocampus was treated in an enzyme solution containing 0.25% trypsin (Invitrogen) and 0.5 mg/ml DNase (Sigma) at 35° C. for 10 minutes to disperse cells. This enzyme reaction was terminated by adding 20% FBS (Hyclone)/HBSS (Sigma). Then, 2 ml of HBSS (Sigma) was added to the resultant cells. The HBSS-added cell mass was re-dispersed by gentle pipetting. The resultant neuron suspension was diluted with a medium and plated in 10 cm dishes at an initial cell density of 1.5×10^6 cells/dish. […] Then, cells were collected with PBS and subjected to quantitative determination of protein. […]

## C[C@H](NC(=O)Cc1cc(F)cc(F)c1)C(=O)N[C@H]1N=C(c2ccccc2)c2ccccc2N(C)C1=O [Compound E, (2S)-2-{[(3,5-difluorophenyl)acetyl]amino}-N-[(3S)-1-methyl-2-oxo-5-phenyl-2,3-dihydro-1H-1,4-benzodiazepin-3-yl]propanamide]
[1]
  accumulation of EphA4 C-terminal fragment (CTF) band: a band around 50 kDa (CTF) was accumulated specifically
[2]
  accumulation of EphA4 C-terminal fragment (CTF) band: a band around 50 kDa (CTF) was accumulated specifically
